Test results as given in the supplement of paper PMC11061612.

Tests used:
Assay in all cases: combination Emax (second highest fraction inhibited in the dose matrix, 72 h); higher = more inhibition; extreme values may be limits of the assay
[1] = system: D-283MED (Other Solid Carcinomas)
In short: (§1)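 Bliss excess equals the observed combination effect minus the expected value EA + EB − EA·EB, where EA and EB are the effects of each agent alone. Combination Emax is the second-highest inhibition within the matrix. Inhibition was scaled from CellTiter-Glo 2.0 luminescence, with 0 set by vehicle wells and 1 by blank wells, after 72 hours of two-drug dosing of cells plated in 1536-well plates.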

[2] = system: WSU-DLCL2 (B-Cell Non-Hodgkin's Lymphoma)
In short: as §1

[3] = system: SNG-M (Endometrial Carcinoma)
In short: as §1

[4] = system: RCC10RGB (Kidney Carcinoma)
In short: as §1

[5] = system: MEG-01 (Chronic Myelogenous Leukemia)
In short: as §1

[6] = system: ETK-1 (Biliary Tract Carcinoma)
In short: as §1

[7] = system: HOP-92 (Non-Small Cell Lung Carcinoma)
In short: as §1

[8] = system: HLE (Hepatocellular Carcinoma)
In short: as §1

[9] = system: SKN-3 (Head and Neck Carcinoma)
In short: as §1

[10] = system: SLVL (B-Cell Non-Hodgkin's Lymphoma)
In short: as §1

[11] = system: HCT-116 (Colorectal Carcinoma)
In short: as §1

[12] = system: U-118-MG (Low Grade Glioma)
In short: as §1

CS1 (Chondrosarcoma) = system: CS1 (Chondrosarcoma)
In short: as §1

D-392MG (Glioblastoma) = system: D-392MG (Glioblastoma)
In short: as §1

Saos-2 (Osteosarcoma) = system: Saos-2 (Osteosarcoma)
In short: as §1

[13] = system: NCI-H1688 (Small Cell Lung Carcinoma)
In short: as §1

H4 (Low Grade Glioma) = system: H4 (Low Grade Glioma)
In short: as §1

[14] = system: BICR78 (Oral Cavity Carcinoma)
In short: as §1

[15] = system: GDM-1 (Acute Myeloid Leukemia)
In short: as §1

Row | SMILES | combination Emax [1] | combination Emax [2] | combination Emax [3] | combination Emax [4] | combination Emax [5] | combination Emax [6] | combination Emax [7] | combination Emax [8] | combination Emax [9] | combination Emax [10] | combination Emax [11] | combination Emax [12] | combination Emax (CS1 (Chondrosarcoma)) | combination Emax (D-392MG (Glioblastoma)) | combination Emax (Saos-2 (Osteosarcoma)) | combination Emax [13] | combination Emax (H4 (Low Grade Glioma)) | combination Emax [14] | combination Emax [15]
1 | COc1nnc2ccc(N3CCC(c4ccc(OCCN5CCN(C)C(=O)[C@H]5C)cc4)CC3)nn12 [AZD5153] + CCN(CCO)CCCOc1ccc2c(Nc3cc(CC(=O)Nc4cccc(F)c4)[nH]n3)ncnc2c1 [AZD2811] (first compound max 1 µM, 7x7, partner max 1 µM) | 0.9 | 0.942 | 0.502 | 0.565 | 0.895 | 0.463 | 0.402 | 0.521 | 0.462 | 0.696 | 0.759 | 0.362 | 0.46 | 0.456 | 0.601 | 0.389 | 0.668 | 0.542 | 0.952
2 | COc1nnc2ccc(N3CCC(c4ccc(OCCN5CCN(C)C(=O)[C@H]5C)cc4)CC3)nn12 [AZD5153] + C[C@@H]1COCCN1C2=NC(=NC(=C2)C3(CC3)[S@](=N)(=O)C)C4=C5C=CNC5=NC=C4 [AZD6738] (first compound max 1 µM, 7x7, partner max 10 µM) | 0.995 | 1 | 0.901 | 0.572 | 0.966 | 0.717 | 0.374 | 0.689 | 0.634 | 0.689 | 0.88 | 0.611 | 0.661 | 0.514 | 0.843 | 0.633 | 0.796 | 0.636 | 0.943
3 | COc1nnc2ccc(N3CCC(c4ccc(OCCN5CCN(C)C(=O)[C@H]5C)cc4)CC3)nn12 [AZD5153] + Cc1c2c(nn1C)CSCc1cc(n(C)n1)CSc1cc(c3ccccc3c1)OCCCc1c(C(=O)O)n(C)c3c-2c(Cl)ccc13 [AZD5991] (first compound max 1 µM, 7x7, partner max 1 µM) | 0.979 | 1 | 0.639 | 0.531 | 0.961 | 0.513 | 0.386 | 0.626 | 0.6 | 0.715 | 0.716 | 0.352 | 0.38 | 0.541 | 0.835 | 0.647 | 0.888 | 0.501 | 1
4 | COc1nnc2ccc(N3CCC(c4ccc(OCCN5CCN(C)C(=O)[C@H]5C)cc4)CC3)nn12 [AZD5153] + Cn1cnc2c(F)c(Nc3ccc(Br)cc3Cl)c(C(=O)NOCCO)cc21 [Selumetinib] (first compound max 1 µM, 7x7, partner max 10 µM) | 0.849 | 0.963 | 0.632 | 0.574 | 0.988 | 0.463 | 0.556 | 0.341 | 0.531 | 0.738 | 0.866 | 0.362 | 0.469 | 0.569 | 0.516 | 0.384 | 0.699 | 0.548 | 0.823
5 | NC1(C(=O)N[C@@H](CCO)c2ccc(Cl)cc2)CCN(c2ncnc3[nH]ccc23)CC1 [Capivasertib] + CC(=O)c1c(C)c2cnc(Nc3ccc(N4CCNCC4)cn3)nc2n(C2CCCC2)c1=O [Palbociclib] (first compound max 10 µM, 7x7, partner max 10 µM) | 0.634 | 1 | 0.501 | 0.54 | 0.468 | 0.419 | 0.466 | 0.164 | 0.474 | 0.56 | 0.782 | 0.676 | 0.442 | 0.436 | 0.407 | 0.224 | 0.751 | 0.424 | 0.623
6 | NC1(C(=O)N[C@@H](CCO)c2ccc(Cl)cc2)CCN(c2ncnc3[nH]ccc23)CC1 [Capivasertib] + CC(C)n1c(=O)n(C)c2cnc3cc(F)c(-c4ccc(OCCCN5CCCCC5)nc4)cc3c21 [AZD1390] (first compound max 10 µM, 7x7, partner max 0.3 µM) | 0.475 | 1 | 0.29 | 0.2 | 0.256 | 0.331 | 0.376 | 0.194 | 0.2 | 0.637 | 0.373 | 0.47 | 0.298 | 0.228 | 0.473 | 0.296 | 0.515 | 0.368 | 0.401
7 | NC1(C(=O)N[C@@H](CCO)c2ccc(Cl)cc2)CCN(c2ncnc3[nH]ccc23)CC1 [Capivasertib] + CCN(CCO)CCCOc1ccc2c(Nc3cc(CC(=O)Nc4cccc(F)c4)[nH]n3)ncnc2c1 [AZD2811] (first compound max 10 µM, 7x7, partner max 1 µM) | 0.737 | 1 | 0.363 | 0.292 | 0.638 | 0.381 | 0.458 | 0.33 | 0.23 | 0.667 | 0.587 | 0.603 | 0.417 | 0.332 | 0.586 | 0.309 | 0.58 | 0.392 | 0.837
8 | NC1(C(=O)N[C@@H](CCO)c2ccc(Cl)cc2)CCN(c2ncnc3[nH]ccc23)CC1 [Capivasertib] + COc1nnc2ccc(N3CCC(c4ccc(OCCN5CCN(C)C(=O)[C@H]5C)cc4)CC3)nn12 [AZD5153] (first compound max 10 µM, 7x7, partner max 1 µM) | 0.771 | 1 | 0.749 | 0.518 | 0.877 | 0.503 | 0.405 | 0.389 | 0.581 | 0.764 | 0.813 | 0.658 | 0.455 | 0.512 | 0.554 | 0.406 | 0.744 | 0.636 | 0.79
9 | NC1(C(=O)N[C@@H](CCO)c2ccc(Cl)cc2)CCN(c2ncnc3[nH]ccc23)CC1 [Capivasertib] + C[C@@H]1COCCN1C2=NC(=NC(=C2)C3(CC3)[S@](=N)(=O)C)C4=C5C=CNC5=NC=C4 [AZD6738] (first compound max 10 µM, 7x7, partner max 10 µM) | 0.975 | 1 | 0.888 | 0.469 | 0.945 | 0.695 | 0.541 | 0.605 | 0.566 | 0.845 | 0.765 | 0.685 | 0.621 | 0.464 | 0.586 | 0.445 | 0.809 | 0.628 | 0.734
10 | NC1(C(=O)N[C@@H](CCO)c2ccc(Cl)cc2)CCN(c2ncnc3[nH]ccc23)CC1 [Capivasertib] + Cn1cnc2c(F)c(Nc3ccc(Br)cc3Cl)c(C(=O)NOCCO)cc21 [Selumetinib] (first compound max 10 µM, 7x7, partner max 10 µM) | 0.548 | 1 | 0.648 | 0.483 | 0.825 | 0.48 | 0.685 | 0.236 | 0.426 | 0.806 | 0.877 | 0.663 | 0.502 | 0.484 | 0.46 | 0.372 | 0.61 | 0.548 | 0.73
11 | Cc1nc(Nc2ncc(C(=O)Nc3c(C)cccc3Cl)s2)cc(N2CCN(CCO)CC2)n1 [Dasatinib] + CC(=O)Nc1cccc(-n2c(=O)n(C3CC3)c(=O)c3c(Nc4ccc(I)cc4F)n(C)c(=O)c(C)c32)c1 [Trametinib] (first compound max 2 µM, 7x7, partner max 1 µM) | 0.419 | 0.432 | 0.798 | 0.667 | 1 | 0.781 | 0.928 | 0.414 | 0.575 | 0.663 | 0.979 | 0.557 | 0.568 | 0.627 | 0.335 | 0.249 | 0.393 | 0.435 | 0.76
12 | COc1cc2ncnc(Nc3ccc(F)c(Cl)c3)c2cc1OCCCN1CCOCC1 [Gefitinib] + CC(C)n1c(=O)n(C)c2cnc3cc(F)c(-c4ccc(OCCCN5CCCCC5)nc4)cc3c21 [AZD1390] (first compound max 10 µM, 7x7, partner max 0.3 µM) | 0.425 | 0.128 | 0.229 | 0.563 | 0.11 | 0.576 | 0.229 | 0.101 | 0.236 | 0.185 | 0.133 | 0.0987 | 0.201 | 0.084 | 0.184 | 0.233 | 0.121 | 0.286 | 0.131
13 | CS(=O)(=O)CCNCc1ccc(-c2ccc3ncnc(Nc4ccc(OCc5cccc(F)c5)c(Cl)c4)c3c2)o1 [Lapatinib] + C[C@@H](Oc1cc(-c2cnn(C3CCNCC3)c2)cnc1N)c1c(Cl)ccc(F)c1Cl [Crizotinib] (first compound max 10 µM, 7x7, partner max 10 µM) | 0.985 | 0.924 | 0.955 | 0.908 | 0.992 | 0.958 | 0.937 | 0.537 | 0.738 | 0.65 | 0.956 | 0.491 | 0.797 | 0.498 | 0.889 | 0.742 | 0.944 | 0.918 | 0.913
